Experiments:
MEKK3 = molecular target: T1, MEKK3 (Homo sapiens, UniProt Q99759); experiment: MEKK3 mobility band shift on high-ratio acrylamide:bis-acrylamide SDS-PAGE of lysates from treated cells; assay type: cell-based; conditions: MEKK3 expressed in treated HEK293 cells; data not shown
T1 construct: expressed in transfected cells; host or cells: HEK 293
T1 sequence (Q99759 1-626): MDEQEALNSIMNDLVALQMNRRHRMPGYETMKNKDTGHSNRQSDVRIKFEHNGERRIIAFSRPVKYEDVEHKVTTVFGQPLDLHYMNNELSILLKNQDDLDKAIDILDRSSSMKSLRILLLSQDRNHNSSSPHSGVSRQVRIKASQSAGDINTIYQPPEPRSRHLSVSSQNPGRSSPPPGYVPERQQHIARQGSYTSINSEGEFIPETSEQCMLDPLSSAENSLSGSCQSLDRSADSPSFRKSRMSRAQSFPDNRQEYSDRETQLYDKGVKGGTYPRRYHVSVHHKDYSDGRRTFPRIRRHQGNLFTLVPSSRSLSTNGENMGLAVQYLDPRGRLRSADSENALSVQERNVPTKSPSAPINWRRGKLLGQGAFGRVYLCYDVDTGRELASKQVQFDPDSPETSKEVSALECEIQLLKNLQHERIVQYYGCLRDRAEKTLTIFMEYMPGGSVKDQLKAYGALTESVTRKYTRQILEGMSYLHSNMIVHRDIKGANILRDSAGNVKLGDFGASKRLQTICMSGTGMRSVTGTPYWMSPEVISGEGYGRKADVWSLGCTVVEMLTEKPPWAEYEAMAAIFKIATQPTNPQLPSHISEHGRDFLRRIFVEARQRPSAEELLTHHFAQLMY

MEKK3-14-3-3 interaction = molecular target: T2, MEKK3-14-3-3 interaction (Homo sapiens, UniProt Q99759); experiment: Co-immunoprecipitation of 14-3-3 with FLAG-MEKK3 from HEK 293 cells treated with kinase inhibitor; assay type: cell-based; conditions: HEK 293 cells with wt MEKK3; 1 μM, 5 μM or 10 μM for 20 min prior to solubilization
T2 construct: expressed in transfected cells; host or cells: HEK 293
T2 sequence (Q99759 1-626): T1 sequence (Q99759 1-626)
Protocol: A, B. HEK 293 cells were transfected with wildtype (wt) MEKK3, K391M MEKK3, or S526A MEKK (shown in B) or empty vector. After 24 hours, cells were solubilized, and FLAG-MEKK3 was immunoprecipitated with anti-FLAG M2-conjugated agarose. Proteins were resolved by SDS-PAGE, and immunoblotted with anti-FLAG antibody or anti-14-3-3β antibody (which recognizes the family of 14-3-3 proteins). C. HEK 293 cells were transfected with wt MEKK3 for 24 hours, and then treated with staurosporine (1 μM, 5 μM, or 10 μM) for 20 min prior to solubilization. MEKK3 and 14-3-3 were detected as in A.
HEK 293 cells were plated onto 35-mm-diameter dishes at 80% confluency, and transfected with 100 to 500 ng of cDNA using Lipofectamine-2000 (Gibco-BRL) following the manufacturer's protocol. Transfection medium was removed and replaced with complete DMEM overnight.
Cells were lysed in 50 mM Tris-HCl, pH 7.4, 1% Triton X-100, 25 mM NaF, 25 mM β-glycerophosphate, 5 mM EDTA, 0.05% SDS, 1.0 μg/ml microcystin LR, and protease inhibitors. […] FLAG was stained with anti-FLAG M2 mouse monoclonal (Sigma), and 14-3-3 isoforms were detected with anti-14-3-3β (H8; Santa Cruz Biotechnology).
The family of 14-3-3 proteins was detected by immunoblotting with a pan-specific 14-3-3 antibody raised against a common sequence present in all family members. […]

Row | Compound | MEKK3 band shift (mobility shift on SDS-PAGE) (MEKK3) | MEKK3-14-3-3 interaction (14-3-3 co-immunoprecipitation) (MEKK3-14-3-3 interaction)
1 | N#CC(=C(/N)Sc1ccccc1N)/C(C#N)=C(\N)Sc1ccccc1N [U0126] | had no effect on mobility shift | 
2 | CN[C@@H]1C[C@H]2O[C@@](C)([C@@H]1OC)n1c3ccccc3c3c4c(c5c6ccccc6n2c5c31)C(=O)NC4 [staurosporine] | reduced the MEKK3 band shift | disrupted MEKK3-14-3-3 interaction

— US20090156466A1, “Characterization of a MEKK binding site and uses thereof” (priority 2007, published 2009)
